Assay: xn = mol fraction of the nth substance listed
Settings: 100 kPa

CCCC[n+]1ccn(C)c1C.F[B-](F)(F)F + O=C1CCCN1
speed of sound [m/s]
Settings	293.15 K	298.15 K	303.15 K	308.15 K
x1 = 0.0698	1659.6	1644.9	1629.3	1615.7
x1 = 0.1052	–	1649.6	1634.8	1621.9
x1 = 0.1469	–	–	1640.6	1628.7
x1 = 0.1948	1670.6	1659.8	–	1634.9
x1 = 0.2495	1672.1	1662.8	–	1638.3
x1 = 0.2945	1671.9	1663.3	1652	1640.1
x1 = 0.3428	1670.8	1662	1651.2	1639.9
x1 = 0.3964	1666.8	1658.3	–	1637.2
x1 = 0.4419	1661.9	–	1643.3	1633
x1 = 0.5004	1653.8	1645.7	1635.6	1625.8
x1 = 0.5563	1645.8	1637.1	1626.5	1617.3
x1 = 0.5949	1640.2	1630.9	1620.4	1611.1
x1 = 0.6419	–	1623.6	1613.1	1603.7
x1 = 0.6984	1626.6	1616.1	1605.4	1595.6
x1 = 0.7521	1622.1	–	1599.8	1589.4
x1 = 0.8031	–	1608.8	1596.7	1586.2
x1 = 0.8549	1623.2	1610.3	1597.8	1586.8
x1 = 0.9021	–	1615.8	1603.4	1591.6
x1 = 0.9564	1642.5	1628.7	–	1603.7

— a compilation of properties of binary mixtures (doi:10.1007/s10953-021-01127-x)
